The test system of this test is acetylcholine-bromide-induced abdominal constriction (writhing). Kind of test: Mouse Acetylcholine-Bromide-Induced Abdominal Constriction Assay. Type of test: in vivo. The note with it: for ED50: po, read-out: ED50 (dose which inhibits writhing by 50%). The protocol:
Mouse Acetylcholine-Bromide-Induced Abdominal Constriction Assay:
The mouse acetylcholine-induced abdominal constriction assay, as described by Collier et al. in Brit. J. Pharmacol. Chem. Ther., 32:295-310, 1968, with minor modifications was the test used to assess analgesic potency. The test drugs or appropriate vehicle were administered orally (p.o.) and 30 minutes later the animals received an intraperitoneal (i.p.) injection of 5.5 mg/kg acetylcholine bromide (Matheson, Coleman and Bell, East Rutherford, NJ). The mice were then placed in groups of four into glass bell jars and observed for a ten minute observation period for the occurrence of a writhe (defined as a wave of constriction and elongation passing caudally along the abdominal wall, accompanied by a twisting of the trunk and followed by extension of the hind limbs). The percent inhibition of writhing (equated to % analgesia) was calculated as follows: The % inhibition of writhing, i.e., % analgesia, is equal to the difference between the No. of control animals writhing and the No. of drug-treated animals writhing times 100 divided by the No. of control animals writhing.
At least 20 animals were used for control and in each of the drug treated groups. Four doses were used to determine each dose response curve and ED50 (that does which inhibits writhing by 50%). The ED50 values and their 95% fiducial limits were determined by a computer assisted probit analysis.

SMILES strings stand for the structures. Read-outs that look alike come from different tables or passages of the source.

Consider five molecules from US4716172A, “4-substituted octahydroquinolizine analgesic compounds and octahydroquinolizinium intermediates” (McNeilab, Inc., priority 1986, dated 1987).

`Cl.c1ccc(Oc2ccc([C@@H]3CCC[C@@H]4CCCCN43)cc2)cc1` (relative stereo) [Example 2e, trans-Octahydro-4-(4-phenoxyphenyl)-2H-quinolizine Hydrochloride]: for the setting “mouse, p.o., 30 minutes before i.p. 5.5 mg/kg acetylcholine bromide, ten minute observation”, the ED50 (as a rule, the dose at which the effect has come halfway, by size or by number of responders) amounted to 8 mg/kg.

As for `COc1cccc([C@@H]2CCC[C@@H]3CCCCN32)c1.Cl` (relative stereo) [Example 3e, trans-Octahydro-4-(3-methoxyphenyl)-2H-quinolizine Hydrochloride], where the note is “mouse, p.o., at 30 mg/Kg, 30 minutes before i.p. 5.5 mg/kg acetylcholine bromide, ten minute observation”, the “% inhibition of writhing (% analgesia), printed in ED50 column” value is 40%.

For `Clc1cccc(Cl)c1[C@@H]1CCC[C@@H]2CCCCN21.[O-][Cl+3]([O-])([O-])O` (relative stereo) [Example 1e, trans-4-(2,6-dichlorophenyl)octahydro-2H-quinolizine perchlorate], for the setting “Mus musculus”, the ED50 is 5 mg/kg.

Turning to `Cl.Ic1ccccc1[C@@H]1CCC[C@@H]2CCCCN21` (relative stereo) [Example 4e, trans-Octahydro-4-(2-iodophenyl)-2H-quinolizine Hydrochloride], the ED50 (Mus musculus) came out at 30 mg/kg.

Regarding `Brc1ccccc1[C@@H]1CCC[C@@H]2CCCCN21.Cl` (relative stereo) [Example 5e, trans-4(2-Bromophenyl)octahydro-2H-quinolizine Hydrochloride], for the setting “Mus musculus”, the ED50 worked out at 23 mg/kg.
